According to patent publication US11173137B2, “Compositions and methods to modulate chloride ion channel activity” (The Board of Trustees of the Leland Stanford Junior …, priority 2018, dated 2021):
Values joined by “and” are separate entries in the source; they are usually repeats but may differ in a detail not shown here. Identical values can stand only once. Like-named read-outs stand apart in the source and are kept apart here.

Tests used:
5-HT1E = 5-HT1E (Homo sapiens (Human), UniProt P28566); experiment: PDSP primary binding assay; settings: primary binding assay at 10 μM
Experimental: (§1) Two exemplary compounds, FA44 and FA26, were screened against a panel of CNS receptors, transporters, and ion channels to examine specificity for CLC-2 in the brain. A comprehensive primary binding assay screen was performed through the NIH Psychoactive Drug Screening Program (PDSP) at UNC-Chapel Hill. Secondary or functional assays were performed for compounds showing >50% activity in the primary assay.

Sigma 1 = Sigma 1 (Homo sapiens (Human), UniProt Q99720); experiment: PDSP primary binding assay; settings: primary binding assay at 10 μM
Experimental: as §1

Beta2 = Beta2 (Homo sapiens (Human), UniProt P07550); experiment: PDSP primary binding assay; settings: primary binding assay at 10 μM
Experimental: as §1

D5 = D5 (Homo sapiens (Human), UniProt P21918); experiment: PDSP primary binding assay; settings: primary binding assay at 10 μM
Experimental: as §1

GABAA = experiment: PDSP primary binding assay; settings: primary binding assay at 10 μM
Experimental: as §1

H3 = H3 (Homo sapiens (Human), UniProt Q9Y5N1); experiment: PDSP primary binding assay; settings: primary binding assay at 10 μM
Experimental: as §1

DOR = DOR (Homo sapiens (Human), UniProt P41143); experiment: PDSP primary binding assay; settings: primary binding assay at 10 μM
Experimental: as §1

NMDA = experiment: PDSP primary binding assay; settings: primary binding assay at 10 μM
Experimental: as §1

PBR = PBR (Homo sapiens (Human), UniProt P30536); experiment: PDSP primary binding assay; settings: primary binding assay at 10 μM
Experimental: as §1

Oxytocin = Oxytocin (Homo sapiens (Human), UniProt P30559); experiment: PDSP primary binding assay; settings: primary binding assay at 10 μM
Experimental: as §1

5-HT3 = 5-HT3 (Homo sapiens (Human), UniProt P46098); experiment: PDSP primary binding assay; settings: primary binding assay at 10 μM
Experimental: as §1

Alpha1A = Alpha1A (Homo sapiens (Human), UniProt P35348); experiment: PDSP primary binding assay; settings: primary binding assay at 10 μM
Experimental: as §1

D3 = D3 (Homo sapiens (Human), UniProt P35462); experiment: PDSP primary binding assay; settings: primary binding assay at 10 μM
Experimental: as §1

5-HT7 = 5-HT7 (Homo sapiens (Human), UniProt P34969); experiment: PDSP primary binding assay; settings: primary binding assay at 10 μM
Experimental: as §1

5-HT5A = 5-HT5A (Homo sapiens (Human), UniProt P47898); experiment: PDSP primary binding assay; settings: primary binding assay at 10 μM
Experimental: as §1

5-HT2C = 5-HT2C (Homo sapiens (Human), UniProt P28335); experiment: PDSP primary binding assay; settings: primary binding assay at 10 μM
Experimental: as §1

5-HT1D = 5-HT1D (Homo sapiens (Human), UniProt P28221); experiment: PDSP primary binding assay; settings: primary binding assay at 10 μM
Experimental: as §1

D2 = D2 (Homo sapiens (Human), UniProt P14416); experiment: PDSP primary binding assay; settings: primary binding assay at 10 μM
Experimental: as §1

BZP rat brain site = experiment: PDSP primary binding assay; settings: primary binding assay at 10 μM
Experimental: as §1

KA = experiment: PDSP primary binding assay; settings: primary binding assay at 10 μM
Experimental: as §1

NET = NET (Homo sapiens (Human), UniProt P23975); experiment: PDSP primary binding assay; settings: primary binding assay at 10 μM
Experimental: as §1

5-HT1B = 5-HT1B (Homo sapiens (Human), UniProt P28222); experiment: PDSP primary binding assay; settings: primary binding assay at 10 μM
Experimental: as §1

Alpha1D = Alpha1D (Homo sapiens (Human), UniProt P25100); experiment: PDSP primary binding assay; settings: primary binding assay at 10 μM
Experimental: as §1

Beta3 = Beta3 (Homo sapiens (Human), UniProt P13945); experiment: PDSP primary binding assay; settings: primary binding assay at 10 μM
Experimental: as §1

D4 = D4 (Homo sapiens (Human), UniProt P21917); experiment: PDSP primary binding assay; settings: primary binding assay at 10 μM
Experimental: as §1

Alpha2B = Alpha2B (Homo sapiens (Human), UniProt P18089); experiment: PDSP primary binding assay; settings: primary binding assay at 10 μM
Experimental: as §1

H1 = H1 (Homo sapiens (Human), UniProt P35367); experiment: PDSP primary binding assay; settings: primary binding assay at 10 μM
Experimental: as §1

AMPA = experiment: PDSP primary binding assay; settings: primary binding assay at 10 μM
Experimental: as §1

H2 = H2 (Homo sapiens (Human), UniProt P25021); experiment: PDSP primary binding assay; settings: primary binding assay at 10 μM
Experimental: as §1

D1 = D1 (Homo sapiens (Human), UniProt P21728); experiment: PDSP primary binding assay; settings: primary binding assay at 10 μM
Experimental: as §1

H4 = H4 (Homo sapiens (Human), UniProt Q9H3N8); experiment: PDSP primary binding assay; settings: primary binding assay at 10 μM
Experimental: as §1

MOR = MOR (Homo sapiens (Human), UniProt P35372); experiment: PDSP primary binding assay; settings: primary binding assay at 10 μM
Experimental: as §1

NOP = NOP (Homo sapiens (Human), UniProt P41146); experiment: PDSP primary binding assay; settings: primary binding assay at 10 μM
Experimental: as §1

Sigma 2 = Sigma 2 (Homo sapiens (Human), UniProt Q5BJF2); experiment: PDSP primary binding assay; settings: primary binding assay at 10 μM
Experimental: as §1

mGluR1 = mGluR1 (Homo sapiens (Human), UniProt Q13255); experiment: PDSP functional assay; format: biochemical; settings: only a functional assay was performed
Experimental: as §1

CLC-2 = CLC-2 (Homo sapiens (Human), UniProt P51788); experiment: IonWorks Barracuda automated patch-clamp electrophysiology, human CLC-2 cell line; format: cell-based
Excerpt: FIG. 8, panels A and B depict graphically the Selectivity between CLC-1 and CLC-2. […]

CLC-1 = CLC-1 (Homo sapiens (Human), UniProt P35523); experiment: IonWorks Barracuda automated patch-clamp electrophysiology, CLC-1; format: cell-based
Experimental: If the IC50 was greater than the highest concentration tested, this concentration is listed along with the percent inhibition at this concentration (in parenthesis).
FIG. 8, panels A and B depict graphically the Selectivity between CLC-1 and CLC-2. […] Data points represent the mean current block at 16 different FA44 concentrations (n=4-8), using the IonWorks™ Barracuda. […] Panel B depicts a summary graph showing the mean inhibition of CLC-1 (left bar) or CLC-2 (right bar) current at 30 μM, illustrating the improvement in both selectivity and potency from the hit compound MCFA to the exemplary compound FA44.

Sequence of CLC-2 (P51788 whole entry): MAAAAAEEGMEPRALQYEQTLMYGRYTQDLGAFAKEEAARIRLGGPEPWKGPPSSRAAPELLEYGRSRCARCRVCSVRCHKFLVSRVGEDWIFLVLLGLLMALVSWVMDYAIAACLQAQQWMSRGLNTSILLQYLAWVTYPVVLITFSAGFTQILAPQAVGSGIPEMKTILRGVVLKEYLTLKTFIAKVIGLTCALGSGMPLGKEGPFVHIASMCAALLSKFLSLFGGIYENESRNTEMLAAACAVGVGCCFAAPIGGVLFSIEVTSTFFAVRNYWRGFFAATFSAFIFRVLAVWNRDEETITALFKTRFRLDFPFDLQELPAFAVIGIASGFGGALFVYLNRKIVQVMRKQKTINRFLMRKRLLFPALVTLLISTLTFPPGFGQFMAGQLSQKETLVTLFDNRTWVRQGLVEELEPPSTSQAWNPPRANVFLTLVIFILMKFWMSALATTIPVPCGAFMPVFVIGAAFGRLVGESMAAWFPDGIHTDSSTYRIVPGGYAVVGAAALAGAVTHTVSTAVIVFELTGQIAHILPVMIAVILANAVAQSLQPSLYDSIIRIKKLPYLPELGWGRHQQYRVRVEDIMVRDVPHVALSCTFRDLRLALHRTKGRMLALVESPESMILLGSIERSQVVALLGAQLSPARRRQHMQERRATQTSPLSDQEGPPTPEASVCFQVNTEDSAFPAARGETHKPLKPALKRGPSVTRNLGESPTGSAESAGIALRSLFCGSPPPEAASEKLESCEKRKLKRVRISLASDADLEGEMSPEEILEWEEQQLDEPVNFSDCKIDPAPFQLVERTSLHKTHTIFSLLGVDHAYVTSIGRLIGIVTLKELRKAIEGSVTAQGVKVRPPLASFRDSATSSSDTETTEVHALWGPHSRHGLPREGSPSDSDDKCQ
Sequence of CLC-1 (P35523 whole entry): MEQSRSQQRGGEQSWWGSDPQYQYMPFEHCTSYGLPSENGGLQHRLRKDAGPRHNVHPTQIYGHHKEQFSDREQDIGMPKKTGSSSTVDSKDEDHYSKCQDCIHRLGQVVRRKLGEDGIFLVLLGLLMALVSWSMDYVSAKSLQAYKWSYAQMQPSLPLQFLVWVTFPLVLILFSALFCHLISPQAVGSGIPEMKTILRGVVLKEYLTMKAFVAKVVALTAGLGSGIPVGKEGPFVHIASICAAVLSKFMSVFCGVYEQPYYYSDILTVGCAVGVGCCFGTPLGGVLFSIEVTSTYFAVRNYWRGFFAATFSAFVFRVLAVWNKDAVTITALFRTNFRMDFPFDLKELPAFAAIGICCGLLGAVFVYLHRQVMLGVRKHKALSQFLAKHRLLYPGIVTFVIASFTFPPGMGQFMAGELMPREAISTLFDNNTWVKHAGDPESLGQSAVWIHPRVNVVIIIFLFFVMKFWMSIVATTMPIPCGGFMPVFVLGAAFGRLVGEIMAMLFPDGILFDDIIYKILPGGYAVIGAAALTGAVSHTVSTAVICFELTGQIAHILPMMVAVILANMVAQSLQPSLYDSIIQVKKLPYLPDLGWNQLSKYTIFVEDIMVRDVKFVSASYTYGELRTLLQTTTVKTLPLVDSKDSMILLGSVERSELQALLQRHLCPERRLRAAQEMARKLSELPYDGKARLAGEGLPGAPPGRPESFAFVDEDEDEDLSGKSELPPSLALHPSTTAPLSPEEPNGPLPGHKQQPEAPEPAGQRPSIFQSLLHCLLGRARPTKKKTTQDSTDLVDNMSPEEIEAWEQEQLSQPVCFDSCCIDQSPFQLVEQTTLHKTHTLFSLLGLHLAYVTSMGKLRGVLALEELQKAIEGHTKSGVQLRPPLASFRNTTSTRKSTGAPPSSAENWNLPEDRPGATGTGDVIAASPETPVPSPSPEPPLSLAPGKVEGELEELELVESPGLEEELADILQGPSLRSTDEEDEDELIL
Sequence of Alpha2B (P18089 whole entry): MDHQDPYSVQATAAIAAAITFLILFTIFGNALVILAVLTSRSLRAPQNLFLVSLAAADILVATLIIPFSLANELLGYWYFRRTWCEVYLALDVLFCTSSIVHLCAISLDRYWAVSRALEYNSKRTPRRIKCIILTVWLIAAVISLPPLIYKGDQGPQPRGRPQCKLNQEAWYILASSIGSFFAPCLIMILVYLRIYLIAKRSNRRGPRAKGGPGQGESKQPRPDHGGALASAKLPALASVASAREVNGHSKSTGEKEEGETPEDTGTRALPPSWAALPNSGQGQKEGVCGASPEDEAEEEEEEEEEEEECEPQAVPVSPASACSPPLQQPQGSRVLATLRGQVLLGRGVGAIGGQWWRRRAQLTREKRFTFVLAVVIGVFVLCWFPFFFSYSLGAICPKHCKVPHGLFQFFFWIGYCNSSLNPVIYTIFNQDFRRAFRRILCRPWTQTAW
Sequence of H4 (Q9H3N8 whole entry): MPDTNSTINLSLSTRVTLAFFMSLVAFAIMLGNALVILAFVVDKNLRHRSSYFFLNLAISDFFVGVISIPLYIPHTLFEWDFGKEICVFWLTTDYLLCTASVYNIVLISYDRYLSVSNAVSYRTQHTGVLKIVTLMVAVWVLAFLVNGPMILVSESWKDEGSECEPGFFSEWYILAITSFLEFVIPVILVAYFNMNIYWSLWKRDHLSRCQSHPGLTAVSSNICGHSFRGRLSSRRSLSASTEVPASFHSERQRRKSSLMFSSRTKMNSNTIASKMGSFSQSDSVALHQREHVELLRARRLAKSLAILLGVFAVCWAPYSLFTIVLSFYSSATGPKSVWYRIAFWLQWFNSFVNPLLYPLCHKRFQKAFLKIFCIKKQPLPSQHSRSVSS
Sequence of 5-HT5A (P47898 whole entry, species assumed): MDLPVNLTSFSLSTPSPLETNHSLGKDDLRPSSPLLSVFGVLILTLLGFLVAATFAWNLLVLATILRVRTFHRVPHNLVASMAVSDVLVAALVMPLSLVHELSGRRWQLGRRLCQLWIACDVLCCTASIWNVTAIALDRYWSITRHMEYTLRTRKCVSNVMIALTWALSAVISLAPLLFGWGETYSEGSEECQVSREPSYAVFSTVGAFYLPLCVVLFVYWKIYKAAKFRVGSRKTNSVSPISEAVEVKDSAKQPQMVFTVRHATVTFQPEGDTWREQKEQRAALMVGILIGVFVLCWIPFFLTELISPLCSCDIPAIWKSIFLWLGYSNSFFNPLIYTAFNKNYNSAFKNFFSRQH
Sequence of 5-HT1D (P28221 whole entry, species assumed): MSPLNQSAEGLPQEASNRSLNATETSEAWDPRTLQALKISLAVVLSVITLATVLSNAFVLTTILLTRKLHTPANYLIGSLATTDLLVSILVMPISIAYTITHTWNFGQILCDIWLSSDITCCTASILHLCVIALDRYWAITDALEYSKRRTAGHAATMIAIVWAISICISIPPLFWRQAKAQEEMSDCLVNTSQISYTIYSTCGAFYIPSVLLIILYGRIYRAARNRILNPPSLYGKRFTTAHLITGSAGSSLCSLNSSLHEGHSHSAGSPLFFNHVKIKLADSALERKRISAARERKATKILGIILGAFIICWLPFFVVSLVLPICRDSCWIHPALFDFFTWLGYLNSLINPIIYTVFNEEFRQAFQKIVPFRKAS
Sequence of DOR (P41143 whole entry): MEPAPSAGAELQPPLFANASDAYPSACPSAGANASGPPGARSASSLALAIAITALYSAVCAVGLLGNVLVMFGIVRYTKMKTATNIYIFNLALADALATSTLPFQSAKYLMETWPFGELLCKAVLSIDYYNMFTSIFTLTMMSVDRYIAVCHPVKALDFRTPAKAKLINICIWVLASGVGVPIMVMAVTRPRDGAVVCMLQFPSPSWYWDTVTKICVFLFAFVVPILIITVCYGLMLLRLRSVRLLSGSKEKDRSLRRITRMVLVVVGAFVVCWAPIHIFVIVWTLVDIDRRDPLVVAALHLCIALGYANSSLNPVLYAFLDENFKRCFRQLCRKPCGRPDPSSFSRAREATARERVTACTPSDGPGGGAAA
Sequence of 5-HT1B (P28222 whole entry, species assumed): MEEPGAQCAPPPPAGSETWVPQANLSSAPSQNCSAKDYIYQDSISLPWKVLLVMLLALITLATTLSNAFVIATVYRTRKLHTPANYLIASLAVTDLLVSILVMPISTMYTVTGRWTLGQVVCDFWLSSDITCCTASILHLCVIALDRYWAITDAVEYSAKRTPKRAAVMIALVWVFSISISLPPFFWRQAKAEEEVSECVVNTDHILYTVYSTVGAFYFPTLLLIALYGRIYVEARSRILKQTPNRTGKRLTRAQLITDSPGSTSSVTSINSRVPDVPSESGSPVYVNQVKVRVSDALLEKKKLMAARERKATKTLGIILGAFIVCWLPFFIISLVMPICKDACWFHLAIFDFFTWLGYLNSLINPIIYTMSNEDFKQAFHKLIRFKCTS
Sequence of H2 (P25021 whole entry): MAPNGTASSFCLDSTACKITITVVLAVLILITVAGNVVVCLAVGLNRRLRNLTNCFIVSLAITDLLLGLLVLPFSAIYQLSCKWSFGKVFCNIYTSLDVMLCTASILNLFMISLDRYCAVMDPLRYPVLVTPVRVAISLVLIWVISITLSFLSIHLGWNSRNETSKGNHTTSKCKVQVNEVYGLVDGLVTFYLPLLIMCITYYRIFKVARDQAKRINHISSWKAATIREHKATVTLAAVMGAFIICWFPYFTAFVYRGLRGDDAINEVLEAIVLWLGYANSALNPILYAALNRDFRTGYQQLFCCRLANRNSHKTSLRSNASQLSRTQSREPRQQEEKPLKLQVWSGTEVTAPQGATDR
Sequence of NOP (P41146 whole entry): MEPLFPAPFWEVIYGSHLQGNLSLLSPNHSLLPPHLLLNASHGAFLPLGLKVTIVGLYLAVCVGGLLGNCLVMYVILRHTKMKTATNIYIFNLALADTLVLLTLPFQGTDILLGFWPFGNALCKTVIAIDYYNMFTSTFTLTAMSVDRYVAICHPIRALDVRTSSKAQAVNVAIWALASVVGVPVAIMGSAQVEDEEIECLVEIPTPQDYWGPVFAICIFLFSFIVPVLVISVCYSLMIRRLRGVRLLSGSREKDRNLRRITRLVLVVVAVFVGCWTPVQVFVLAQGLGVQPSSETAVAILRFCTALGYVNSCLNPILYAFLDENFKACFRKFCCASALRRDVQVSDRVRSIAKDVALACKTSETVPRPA

O=C(O)c1ccccc1Nc1c(Cl)ccc(OCc2ccccc2)c1Cl [AK3-99B]
% (10 μM) (5-HT1E): 11.82% | % (10 μM) (Sigma 1): 3.95% | % (10 μM) (Beta2): −8.08% | % (10 μM) (D5): 27.29% | % (10 μM) (GABAA): −17.65% | % (10 μM) (H3): −5.97% | % (10 μM) (DOR): 16.22% | % (10 μM) (NMDA): 39.29% | % (10 μM) (PBR): 2.28% | % (10 μM) (Oxytocin): 8.80% | % (10 μM) (5-HT3): −7.63% | % (10 μM) (Alpha1A): 24.26% | % (10 μM) (D3): 18.42% | % (10 μM) (5-HT7): −29.75% | % (10 μM) (5-HT5A): −5.77% | % (10 μM) (5-HT2C): −11.17% | % (10 μM) (5-HT1D): 6.77% | % (10 μM) (D2): −6.96% | % (10 μM) (BZP rat brain site): 40.75% | % (10 μM) (KA): 13.56% | % (10 μM) (NET): 33.59% | % (10 μM) (5-HT1B): −0.25% | % (10 μM) (Alpha1D): 7.20% | % (10 μM) (Beta3): 32.58% | % (10 μM) (D4): −0.19% | % (10 μM) (Alpha2B): 15.62% | % (10 μM) (H1): −4.62% | % (10 μM) (AMPA): 21.14% | % (10 μM) (H2): 25.62% | % (10 μM) (D1): 27.05% | % (10 μM) (H4): 8.29% | % (10 μM) (MOR): 9.03% | % (10 μM) (NOP): 24.65% | % (10 μM) (Sigma 2): −9.10% | Ki (mGluR1): > 10000 nM | IC50 (CLC-2; Table 2, read-out: IC50 (CLC-2)): 1.7 ± 0.2 µM | IC50 (CLC-2; n = 4 cells, four concentrations of each compound, IonWorks Barracuda, read-out: IC50 (μM) against CLC-2): 0.62 µM | IC50 (CLC-2; text and FIG. 3, Table 1 series, read-out: IC50 against CLC-2): ~0.6 µM and 0.6 µM | IC50 (CLC-1; Table 2): > 30000 nM | percent inhibition of CLC-1 at highest concentration tested (in parenthesis) (CLC-1; at the concentration listed in the same cell): 25%
